Results published in patent publication US8795222B2, “Device and method for treatment of surface infections with nitric oxide” (Pulmonox Technologies Corp., priority 2000, dated 2014).

Key:
Kiebsiella sp. #2 = assay: Bacteriocidal time study, 200 ppm gNO, saline suspension; format: cell-based
Description: (§1) Following the dose and time ranging studies, a series of experiments were performed to determine the time required to effectively induce a bacteriocidal effect with 200 parts per million of gNO, a concentration just above the dose used in the dose-ranging study, on a representative collection of drug resistant gram-positive and gram-negative strains of bacteria associated with clinical infection. A successful bacteriocidal effect was defined as a decrease in bacteria greater than 3 log10 cfu/ml. Further, C. albicans, Methicillin Resistant S. aureus (MRSA), a particularly resistant strain of P. aeruginosa from a cystic fibrosis patient, Group B Streptococcus, and M. smegmatis were also included to see if yeast, multi-drug resistant strains of bacteria, and actinomycetes have a similar response. The drug-resistant bacteria represent a variety of pathogens that contribute to both respiratory and wound infections.
(§2) For these experiments, saline was selected as a suspension media because it would not mask the direct effect of gNO as a bacteriocidal, whereas fully supplemented growth medium might introduce external variables (e.g., buffer or react with gNO). Other media might also provide metabolites and replenish nutrients that produce enzymes that protect bacteria from oxidative and nitrosative damage, thereby masking the effect of gNO. […] In saline, the colonies were static but remained viable. This is similar to the approach of Webert and Jean's use of animal models. Webert K E, et al (2000), Effects of inhaled nitric oxide in a rat model of Pseudomonas aeruginosa pneumonia, Crit. Care Med, 28(7):2397-2405 and Jean D, et al., (2002) Beneficial effects of nitric oxide inhalation on pulmonary bacterial clearance, Critical Care Medicine. 30(2):442-7.
(§3) The latent period was then followed by an abrupt death of all cells. Gram negative and gram positive bacteria, antibiotic resistant bacterial strains, yeast and mycobacteria were all susceptible to 200 ppm gNO. Of importance, is the observation that the two drug resistant bacteria strains were also susceptible.

S. aureus (Clinical) = assay: as above; format: cell-based
Description: as §1, §2, §3

Acinetobacter sp. = assay: as above; format: cell-based
Description: as §1, §2, §3

S. aureus (ATCC) = assay: as above; format: cell-based
Description: as §1, §2, §3

Klebsiella sp. #1 = assay: as above; format: cell-based
Description: as §1, §2, §3

Serracia sp. = assay: as above; format: cell-based
Description: as §1, §2, §3

S. maltophilia = assay: as above; format: cell-based
Description: as §1, §2, §3

E. coli = assay: as above; format: cell-based
Description: as §1, §2, §3

Enterobacter sp. = assay: as above; format: cell-based
Description: as §1, §2, §3

Klebsiella sp. #3 = assay: as above; format: cell-based
Description: as §1, §2, §3

P. aeruginosa (ATCC) = assay: as above; format: cell-based
Description: as §1, §2, §3

Staphylococcus aureus = assay: Full thickness infected wound model, wound bacterial content; format: in vivo, rabbits
Description: FIG. 9 illustrates wound bacterial content following topical application of 200 ppm gNO in a full thickness infected wound model in rabbits.
In vivo studies in animal models have further shown the beneficial effects of nitric oxide gas. In an animal model, full-thickness cutaneous wounds (Set A: four rabbits with eight 8.0 mm punch biopsies & Set B: 4 rabbits with two 50×15 mm wounds) were made on each side of dorsal midline and infected with equal volume of Staphylococcus aureus suspension on day zero. On day one, treated groups in A and B were respectively exposed to 200 and 400 ppm gNO for total of three days. […] A 24-hour continuous delivery model was used for animals in Set B by design of a specialized wound patch. Control groups were only exposed to medical grade air with corresponding flow rate. Four random sample punch biopsies (8.0 mm) were collected on post wounding days 3 and analyzed for bacterial content. Another four punch biopsies from both wound and normal skin tissue were collected for fibroblast viability analysis and toxic effects of gNO.
On average well over 10 fold drop (p<0.05) in bacterial content is observed in comparison between control and treated groups.

S. aureus = assay: gNO dose study, colony growth on agar plates; format: cell-based
Description: FIG. 6 depicts a S. aureus dosage curve for exposure to gaseous NO (gNO) with bacteria grown on solid media. Relative percentages of growth of S. aureus colony forming units (cfu) at 50, 80, 120 and 160 parts per million (ppm) of nitric oxide compared with growth of S. aureus cfu in medical air (100%) are shown.
To study the effects of gaseous nitric oxide on potential pathogens, a custom gas exposure incubator was designed and validated for temperature, humidity, and gas concentrations, providing an environment that matches that of a microbiologic incubator, while enabling controlled exposure of precise concentrations of the gas. […] The gNO chamber allowed control and adjustment of following factors in all in vitro studies: gNO dose, total air flow, NO2 levels, O2 levels, CO2 levels, temperature, and humidity. For the initial pilot studies, two strains of bacterial pathogen were selected based on two proposed clinical applications of gNO for respiratory infections and topical application. P. aeruginosa is associated primarily with pulmonary disease, but may also be associated with skin infection such as in severe burns. S. aureus is associated with surface wound infections. Both of these micro-organisms were chosen for the pilot study.
The first step in the process of evaluating the direct effect of gNO on bacteria was to design a simple study to determine what dose, if any, would be an approximate lethal concentration level for microbes. Once an optimal dose was estimated, then a timing study would be conducted. For these initial studies, highly dense inoculums of P. aeruginosa and S. aureus suspensions (10^8 cfu/ml) were plated onto agar plates. These plates were then exposed to various concentrations of gNO in the exposure device in order to evaluate the effect on colony growth.

## [N]=O [gNO, nitric oxide]
Kiebsiella sp. #2
  LD100: 5 h
  Latent Period*: 2 h
Kiebsiella sp. #2; time to −2.5 log10 cfu/ml
  −2.5 Log10: 4.1 hrs
S. aureus (Clinical)
  LD100: 4 h
  Latent Period*: 3 h
S. aureus (Clinical); time to −2.5 log10 cfu/ml
  −2.5 Log10: 3.7 hrs
Acinetobacter sp.
  LD100: 6 h
  Latent Period*: 4 h
Acinetobacter sp.; time to −2.5 log10 cfu/ml
  −2.5 Log10: 5 hrs
S. aureus (ATCC)
  LD100: 4 h
  Latent Period*: 3 h
S. aureus (ATCC); time to −2.5 log10 cfu/ml
  −2.5 Log10: 3.3 hrs
Klebsiella sp. #1
  LD100: 6 h
  Latent Period*: 3 h
Klebsiella sp. #1; time to −2.5 log10 cfu/ml
  −2.5 Log10: 3.5 hrs
Serracia sp.
  LD100: 6 h
  Latent Period*: 4 h
Serracia sp.; time to −2.5 log10 cfu/ml
  −2.5 Log10: 4.9 hrs
S. maltophilia
  LD100: 4 h
  Latent Period*: 2 h
S. maltophilia; time to −2.5 log10 cfu/ml
  −2.5 Log10: 2.8 hrs
E. coli
  LD100: 5 h
  Latent Period*: 3 h
E. coli; time to −2.5 log10 cfu/ml
  −2.5 Log10: 4.2 hrs
Enterobacter sp.
  LD100: 6 h
  Latent Period*: 4 h
Enterobacter sp.; time to −2.5 log10 cfu/ml
  −2.5 Log10: 5.3 hrs
Klebsiella sp. #3
  LD100: 6 h
  Latent Period*: 3 h
Klebsiella sp. #3; time to −2.5 log10 cfu/ml
  −2.5 Log10: 5.1 hrs
P. aeruginosa (ATCC)
  LD100: 3 h
  Latent Period*: 1 h
P. aeruginosa (ATCC); time to −2.5 log10 cfu/ml
  −2.5 Log10: 2.1 hrs
Staphylococcus aureus; 200 ppm gNO continuously for 72 hours, compared with medical air control
  wound bacterial content: significant bacterial reduction
Staphylococcus aureus; 400 ppm gNO, control versus treated, p<0.05
  drop in wound bacterial content: over 10 fold
S. aureus; 24 hours after gNO exposure, controls overgrew
  colony size and number after transfer to a conventional incubator: remained the same in size and number
S. aureus; gNO greater than 120 ppm, agar plates
  time required to achieve the >90% reduction of colony formation: 8 to 12 h
S. aureus; gNO greater than 120 ppm, agar plates, compared with medical air
  reduction of colony formation: greater than 90%
S. aureus; increasing gNO to 120 ppm, agar plates
  survival: 5-10%
